{"source": "patent US20210032257A1", "about": "“(E)-1-(4-(DIMETHYLAMINO)BUT-2-ENOYL)PYRROLIDIN-3-YL 4-((3-ISOPROPYL-5-METHYLPYRAZOLO[1,5-A]PYRIMIDIN-7-YL)AMINO)PIPERIDINE-1-CARBOXYLATE FOR INHIBITING CDK7” (Eli Lilly and Company, priority 2017, published 2021)", "test_in_all_cases": "Biomarker study proliferation (CellTiter-Glo)", "type_in_all_cases": "cell-based", "key": {"CT26": {"test_system": "CT26", "description": "(§1) Cancer cell lines are profiled to evaluate the anti-proliferative activity of a test compound in-vitro. Mutation, copy number and gene expression information of ARID1A, KMT2C, KMT2D and/or RB1 genes across cancer cell lines is obtained from COSMIC database (cancer.sanger.ac.uk) and cBioportal (http://www.cbioportal.org/). Cells are cultured in growth medium and plated into a 96-well plate in 100 μL/well growth medium at 5000 cells/well then incubated at 37° C., 5% CO2 overnight. Cells are cultured using supplier recommended media and conditions well known in the art, for example with RPMI 1640 with or without HEPES & L-Glutamine (Thermo SH30255.01) and 1 mM Sodium Pyruvate, and 10% FBS(Gibco cat #10082). The 1000× intermediate dilution plate is prepared by making a 10 mM working solution of a test sample in DMSO and performing 1:3 dilutions in DMSO for 10 points. The 10× dosing plate is prepared by adding 2 μL from the 1000× intermediate dilution plate to 198 μL of OPTIMEM®+10% FBS and mixing well. The cell plate is then treated by adding 11 μL from the 10× dosing plate into the 100 μL/well cell plate for a 1× final concentration. Staurosporine is used as a maximum growth inhibition control at a final concentration of 5 μM. The cell plate is incubated for 7 days at 37° C., 5% CO2. Seven days after treatment, Cell Titer-Glo® (Promega cat #G7571) assay buffer and substrate are removed from −20° C. and allowed to equilibrate to RT. Assay buffer is added to the substrate and swirled gently to mix. The CELL TITER-GLO® reagent (100 μL/well) is added to the cell plate and incubated at RT for 15 minutes. After 15 minutes, luminescence is read using a plate reader. Data is analyzed in Excel and graphed in GraphPad Prism. Statistical analysis and p value is calculated using Mann-Whitney nonparameteric t tests using GraphPad Prism.\n(§2) Anti-proliferative effects of a test compound are categorized as insensitive (IC50≥1 μM), cytostatic (IC50<1 μM and % inhibition <70%) or cytotoxic (IC50<1 μM and % inhibition ≥70%)."}, "OV90": {"test_system": "OV90", "description": "as §1, §2"}, "NCIH522": {"test_system": "NCIH522", "description": "as §1, §2"}, "MCF7": {"test_system": "MCF7", "description": "as §1, §2"}, "CAOV3": {"test_system": "CAOV3", "description": "as §1, §2"}, "JURKAT": {"test_system": "JURKAT", "description": "as §1, §2"}, "MOLT4": {"test_system": "MOLT4", "description": "as §1, §2"}, "HEPG2": {"test_system": "HEPG2", "description": "as §1, §2"}, "COLO201": {"test_system": "COLO201", "description": "as §1, §2"}, "HLF": {"test_system": "HLF", "description": "as §1, §2"}, "SNU478": {"test_system": "SNU478", "description": "as §1, §2"}, "SW837": {"test_system": "SW837", "description": "as §1, §2"}, "NCIH69": {"test_system": "NCIH69", "description": "as §1, §2"}, "SW480": {"test_system": "SW480", "description": "as §1, §2"}, "NIHOVCAR3": {"test_system": "NIHOVCAR3", "description": "as §1, §2"}, "U87MG": {"test_system": "U87MG", "description": "as §1, §2"}, "HCC4006": {"test_system": "HCC4006", "description": "as §1, §2"}, "HCC1143": {"test_system": "HCC1143", "description": "as §1, §2"}, "SJRH30": {"test_system": "SJRH30", "description": "as §1, §2"}, "[1]": {"conditions": "168 h, read-out: Anti-proliferation effect IC50"}}, "data": [{"smiles": "Cc1cc(NC2CCN(C(=O)O[C@H]3CCN(C(=O)/C=C/CN(C)C)C3)CC2)n2ncc(C(C)C)c2n1", "note": "[Example 1, [(3S)-1-[(E)-4-(dimethylamino)but-2-enoyl]pyrrolidin-3-yl] 4-[(3-isopropyl-5-methyl-pyrazolo[1,5-a]pyrimidin-7-yl)amino]piperidine-1-carboxylate]", "values": [{"measurement": "Anti-proliferation effect % Inh.", "setting": "CT26; CT26, INTESTINE, 7 days", "value": "−47", "unit": "%"}, {"measurement": "Anti-proliferation effect Outcome", "setting": "CT26; CT26, INTESTINE, 7 days", "value": "Insensitive (insensitive (IC50≥1 μM))"}, {"measurement": "IC50", "setting": "CT26; Mus musculus, CT26, 168 h, read-out: Anti-proliferation effect IC50", "value": "> 10000", "unit": "nM"}, {"measurement": "IC50", "setting": "OV90; Homo sapiens, OV-90, 168 h, read-out: Anti-proliferation effect IC50", "value": 34, "unit": "nM"}, {"measurement": "Anti-proliferation effect % Inh.", "setting": "OV90; OV90, OVARY, 7 days", "value": 61, "unit": "%"}, {"measurement": "Anti-proliferation effect Outcome", "setting": "OV90; OV90, OVARY, 7 days", "value": "Cytostatic (cytostatic (IC50<1 μM and % inhibition <70%))"}, {"measurement": "IC50", "setting": "NCIH522; Homo sapiens, NCI-H522, 168 h, read-out: Anti-proliferation effect IC50", "value": 107, "unit": "nM"}, {"measurement": "Anti-proliferation effect % Inh.", "setting": "NCIH522; NCIH522, LUNG, 7 days", "value": 50, "unit": "%"}, {"measurement": "Anti-proliferation effect Outcome", "setting": "NCIH522; NCIH522, LUNG, 7 days", "value": "Cytostatic (cytostatic (IC50<1 μM and % inhibition <70%))"}, {"measurement": "IC50", "setting": "MCF7; Homo sapiens, MCF7, 168 h, read-out: Anti-proliferation effect IC50", "value": 155, "unit": "nM"}, {"measurement": "Anti-proliferation effect % Inh.", "setting": "MCF7; MCF7, BREAST, 7 days", "value": 58, "unit": "%"}, {"measurement": "Anti-proliferation effect Outcome", "setting": "MCF7; MCF7, BREAST, 7 days", "value": "Cytostatic (cytostatic (IC50<1 μM and % inhibition <70%))"}, {"measurement": "Anti-proliferation effect % Inh.", "setting": "CAOV3; CAOV3, OVARY, 7 days", "value": 96, "unit": "%"}, {"measurement": "Anti-proliferation effect Outcome", "setting": "CAOV3; CAOV3, OVARY, 7 days", "value": "Cytotoxic (cytotoxic (IC50<1 μM and % inhibition ≥70%))"}, {"measurement": "IC50", "setting": "CAOV3; Homo sapiens, Caov-3, 168 h, read-out: Anti-proliferation effect IC50", "value": 19, "unit": "nM"}, {"measurement": "IC50", "setting": "JURKAT; Homo sapiens, Jurkat, 168 h, read-out: Anti-proliferation effect IC50", "value": 61, "unit": "nM"}, {"measurement": "Anti-proliferation effect % Inh.", "setting": "JURKAT; JURKAT, BLOOD, 7 days", "value": 98, "unit": "%"}, {"measurement": "Anti-proliferation effect Outcome", "setting": "JURKAT; JURKAT, BLOOD, 7 days", "value": "Cytotoxic (cytotoxic (IC50<1 μM and % inhibition ≥70%))"}, {"measurement": "IC50", "setting": "MOLT4; Homo sapiens, MOLT-4, 168 h, read-out: Anti-proliferation effect IC50", "value": 40, "unit": "nM"}, {"measurement": "Anti-proliferation effect % Inh.", "setting": "MOLT4; MOLT4, BLOOD, 7 days", "value": 99, "unit": "%"}, {"measurement": "Anti-proliferation effect Outcome", "setting": "MOLT4; MOLT4, BLOOD, 7 days", "value": "Cytotoxic (cytotoxic (IC50<1 μM and % inhibition ≥70%))"}, {"measurement": "Anti-proliferation effect % Inh.", "setting": "HEPG2; HEPG2, LIVER, 7 days", "value": 78, "unit": "%"}, {"measurement": "Anti-proliferation effect Outcome", "setting": "HEPG2; HEPG2, LIVER, 7 days", "value": "Cytotoxic (cytotoxic (IC50<1 μM and % inhibition ≥70%))"}, {"measurement": "IC50", "setting": "HEPG2; Homo sapiens, HepG2, 168 h, read-out: Anti-proliferation effect IC50", "value": 28, "unit": "nM"}, {"measurement": "Anti-proliferation effect % Inh.", "setting": "COLO201; COLO201, INTESTINE, 7 days", "value": 61, "unit": "%"}, {"measurement": "Anti-proliferation effect Outcome", "setting": "COLO201; COLO201, INTESTINE, 7 days", "value": "Cytostatic (cytostatic (IC50<1 μM and % inhibition <70%))"}, {"measurement": "IC50", "setting": "COLO201; Homo sapiens, COLO 201, 168 h, read-out: Anti-proliferation effect IC50", "value": 123, "unit": "nM"}, {"measurement": "IC50", "setting": "HLF; [1]", "value": 17, "unit": "nM"}, {"measurement": "Anti-proliferation effect % Inh.", "setting": "HLF; LIVER, 7 days", "value": 100, "unit": "%"}, {"measurement": "Anti-proliferation effect Outcome", "setting": "HLF; LIVER, 7 days", "value": "Cytotoxic (cytotoxic (IC50<1 μM and % inhibition ≥70%))"}, {"measurement": "IC50", "setting": "SNU478; [1]", "value": 32, "unit": "nM"}, {"measurement": "Anti-proliferation effect % Inh.", "setting": "SNU478; SNU478, BILIARY, 7 days", "value": 92, "unit": "%"}, {"measurement": "Anti-proliferation effect Outcome", "setting": "SNU478; SNU478, BILIARY, 7 days", "value": "Cytotoxic (cytotoxic (IC50<1 μM and % inhibition ≥70%))"}, {"measurement": "IC50", "setting": "SW837; Homo sapiens, SW837, 168 h, read-out: Anti-proliferation effect IC50", "value": 68, "unit": "nM"}, {"measurement": "Anti-proliferation effect % Inh.", "setting": "SW837; SW837, INTESTINE, 7 days", "value": 55, "unit": "%"}, {"measurement": "Anti-proliferation effect Outcome", "setting": "SW837; SW837, INTESTINE, 7 days", "value": "Cytostatic (cytostatic (IC50<1 μM and % inhibition <70%))"}, {"measurement": "IC50", "setting": "NCIH69; Homo sapiens, NCI-H69, 168 h, read-out: Anti-proliferation effect IC50", "value": 173, "unit": "nM"}, {"measurement": "Anti-proliferation effect % Inh.", "setting": "NCIH69; NCIH69, LUNG, 7 days", "value": 68, "unit": "%"}, {"measurement": "Anti-proliferation effect Outcome", "setting": "NCIH69; NCIH69, LUNG, 7 days", "value": "Cytostatic (cytostatic (IC50<1 μM and % inhibition <70%))"}, {"measurement": "IC50", "setting": "SW480; Homo sapiens, SW480, 168 h, read-out: Anti-proliferation effect IC50", "value": 36, "unit": "nM"}, {"measurement": "Anti-proliferation effect % Inh.", "setting": "SW480; SW480, INTESTINE, 7 days", "value": 90, "unit": "%"}, {"measurement": "Anti-proliferation effect Outcome", "setting": "SW480; SW480, INTESTINE, 7 days", "value": "Cytotoxic (cytotoxic (IC50<1 μM and % inhibition ≥70%))"}, {"measurement": "IC50", "setting": "NIHOVCAR3; Homo sapiens, OVCAR-3, 168 h, read-out: Anti-proliferation effect IC50", "value": 40, "unit": "nM"}, {"measurement": "Anti-proliferation effect % Inh.", "setting": "NIHOVCAR3; NIHOVCAR3, OVARY, 7 days", "value": 96, "unit": "%"}, {"measurement": "Anti-proliferation effect Outcome", "setting": "NIHOVCAR3; NIHOVCAR3, OVARY, 7 days", "value": "Cytotoxic (cytotoxic (IC50<1 μM and % inhibition ≥70%))"}, {"measurement": "IC50", "setting": "U87MG; Homo sapiens, U-87 MG, 168 h, read-out: Anti-proliferation effect IC50", "value": 7360, "unit": "nM"}, {"measurement": "Anti-proliferation effect % Inh.", "setting": "U87MG; U87MG, CNS, 7 days", "value": "−5", "unit": "%"}, {"measurement": "Anti-proliferation effect Outcome", "setting": "U87MG; U87MG, CNS, 7 days", "value": "Insensitive (insensitive (IC50≥1 μM))"}, {"measurement": "Anti-proliferation effect % Inh.", "setting": "HCC4006; HCC4006, LUNG, 7 days", "value": 57, "unit": "%"}, {"measurement": "Anti-proliferation effect Outcome", "setting": "HCC4006; HCC4006, LUNG, 7 days", "value": "Cytostatic (cytostatic (IC50<1 μM and % inhibition <70%))"}, {"measurement": "IC50", "setting": "HCC4006; Homo sapiens, HCC4006, 168 h, read-out: Anti-proliferation effect IC50", "value": 28, "unit": "nM"}, {"measurement": "Anti-proliferation effect % Inh.", "setting": "HCC1143; HCC1143, BREAST, 7 days", "value": 37, "unit": "%"}, {"measurement": "Anti-proliferation effect Outcome", "setting": "HCC1143; HCC1143, BREAST, 7 days", "value": "Insensitive (insensitive (IC50≥1 μM))"}, {"measurement": "IC50", "setting": "HCC1143; Homo sapiens, HCC1143, 168 h, read-out: Anti-proliferation effect IC50", "value": "> 10000", "unit": "nM"}, {"measurement": "IC50", "setting": "SJRH30; Homo sapiens, SJRH30, 168 h, read-out: Anti-proliferation effect IC50", "value": 39, "unit": "nM"}, {"measurement": "Anti-proliferation effect % Inh.", "setting": "SJRH30; SJRH30, SOFT TISSUE, 7 days", "value": 62, "unit": "%"}, {"measurement": "Anti-proliferation effect Outcome", "setting": "SJRH30; SJRH30, SOFT TISSUE, 7 days", "value": "Cytostatic (cytostatic (IC50<1 μM and % inhibition <70%))"}]}]}
